Measurements published in US20110144079A1, “ANTIMICROBIAL SYSTEM” (priority 2008, published 2011).
Like-named read-outs stand apart in the source and are kept apart here.

Experiments:
K. aerogenes NCTC 7427 [1] = experiment: Biofilm assay (Calgary Biofilm Device), MBEC; format: cell-based; settings: K. aerogenes NCTC 7427 24 h biofilm, 24 h challenge
Experimental: (§1) Biofilms of each test organism were grown in the Calgary Biofilm Device (commercially available as the MBEC Assay™ for Physiology & Genetics, Innovotech Inc., Edmonton, Alberta, Canada). The device, a micro-titre plated based assay, consists of two parts; a microtitre plate containing the inoculated test medium and a polystyrene lid with 96 identical pegs on which the microbial biofilm forms under gyrorotary incubation. The biofilm assay was conducted according to the MBEC™ assay protocol as supplied by the manufacturer, with slight modifications. Inocula of each test organism were prepared in MHB as described above and adjusted to provide a final inoculum density of ˜10^7 CFU ml^−1 (as confirmed by viable count). 150 μl of the inoculated media was transferred to each well of the 96-well microtitre plate and the assay plate lid, bearing 96 pegs was placed into the microtitre plate. The MBEC assay plates were placed in a gyrorotary incubator (37° C., 95% relative humidity) for 24 h to permit growth and comparison of 24 h biofilms of each test strain. Positive and negative growth controls were included in each plate (6 replicates). Initial and 24 h planktonic viable counts were measured, as were 24 h biofilm counts, expressed as CFU peg^−1, according to manufacturers instructions. After 24 h, the peg lid of the MBEC assay plate was gently rinsed three times. After rinsing, the peg lid of the MBEC assay was transferred to a ‘challenge’ plate. Serial dilutions of each imidazolium salt were prepared in 200 μl of MHB containing various concentrations of IL in each well. Positive growth control and sterility control were included in each assay plate. […] Biofilms were dislodged into recovery media by sonication for 5 minutes and the peg lid discarded. The recovery plate is incubated overnight and visually checked after 24 h for turbidity. In addition, optical density measurements for each plate were recorded at 550 nm. Clear wells were taken as evidence of biofilm eradication and the MBEC value was assigned as the lowest concentration at which no growth was observed after 24 h incubation. Plates were incubated for a further 24 h to confirm biofilm eradication concentrations.

S. aureus PIII [2] = experiment: Biofilm assay (Calgary Biofilm Device), MBEC; format: cell-based; settings: S. aureus PIII 24 h biofilm, 24 h challenge
Experimental: as §1

P. aeruginosa PA01 [3] = experiment: Biofilm assay (Calgary Biofilm Device), MBEC; format: cell-based; settings: P. aeruginosa PA01 24 h biofilm, 24 h challenge
Experimental: as §1

E. coli NCTC 8196 [4] = experiment: Biofilm assay (Calgary Biofilm Device), MBEC; format: cell-based; settings: E. coli NCTC 8196 24 h biofilm, 24 h challenge
Experimental: as §1

E-MRSA 15 [5] = experiment: Biofilm assay (Calgary Biofilm Device), MBEC; format: cell-based; settings: E-MRSA 15 24 h biofilm, 24 h challenge
Experimental: as §1

P. mirabilis NCTC 12442 [6] = experiment: Biofilm assay (Calgary Biofilm Device), MBEC; format: cell-based; settings: P. mirabilis NCTC 12442 24 h biofilm, 24 h challenge
Experimental: as §1

C. tropicalis NCTC 7393 [7] = experiment: Biofilm assay (Calgary Biofilm Device), MBEC; format: cell-based; settings: C. tropicalis NCTC 7393 24 h biofilm, 24 h challenge
Experimental: as §1

[8] = test system: S. epidermidis ATCC 35984; experiment: Biofilm assay (Calgary Biofilm Device), MBEC; format: cell-based; settings: for MBEC: S. epidermidis ATCC 35984 24 h biofilm, 24 h challenge
Experimental: as §1

B. cereus [9] = experiment: Biofilm assay (Calgary Biofilm Device), MBEC; format: cell-based; settings: B. cereus 24 h biofilm, 24 h challenge
Experimental: as §1

K. aerogenes NCTC 7427 [10] = experiment: Broth microdilution MIC/MBC; format: cell-based; settings: for MBC: K. aerogenes NCTC 7427, 99.9% killing; for MIC: K. aerogenes NCTC 7427, 24 h at 37° C.
Experimental: (§2) Broth microdilution tests were performed according to NCCLS guidelines. Serial two-fold dilutions of each imidazolium salt (from an original working solution which had been 0.22 μm sterile filtered) in Mueller-Hinton Broth (MHB) (100 μl) were prepared in 96-well micro-titre plates over the range 0.0000625-1% w/v. The inoculum to be tested was prepared by adjusting the turbidity of an actively overnight growing broth culture in MHB to an optical density at 550 nm equivalent to 1×10^8 CFU/ml. The suspension was further diluted to provide a final inoculum density of 2×10^5 CFU/ml in MHB as verified by total viable count. The inoculum to be tested (100 μl, 2×10^5 CFU ml^−1) was added to each well of the microdilution trays which were incubated aerobically for 24 h at 37° C. Positive and negative growth controls were included in every assay (6 replicates). After determining the MICs, minimum bactericidal concentrations (MBCs) were determined by spreading 20 μl of suspension from wells showing no growth onto MHA plates, which were then incubated for 24 h and examined for 99.9% killing.

[11] = test system: S. epidermidis ATCC 12228; experiment: Broth microdilution MIC/MBC; format: cell-based; settings: for MBC: S. epidermidis ATCC 12228, 99.9% killing; for MIC: S. epidermidis ATCC 12228, 24 h at 37° C.
Experimental: as §2

P. aeruginosa PA01 [12] = experiment: Broth microdilution MIC/MBC; format: cell-based; settings: for MIC: P. aeruginosa PA01, 24 h at 37° C., read-out: MIC
Experimental: as §2

E. coli NCTC 8196 [13] = experiment: Broth microdilution MIC/MBC; format: cell-based; settings: for MBC: E. coli NCTC 8196, 99.9% killing; for MIC: E. coli NCTC 8196, 24 h at 37° C.
Experimental: as §2

E-MRSA 15 [14] = experiment: Broth microdilution MIC/MBC; format: cell-based; settings: for MBC: E-MRSA 15, 99.9% killing; for MIC: E-MRSA 15, 24 h at 37° C.
Experimental: as §2

P. mirabilis NCTC 12442 [15] = experiment: Broth microdilution MIC/MBC; format: cell-based; settings: for MIC: P. mirabilis NCTC 12442, 24 h at 37° C.
Experimental: as §2

C. tropicalis NCTC 7393 [16] = experiment: Broth microdilution MIC/MBC; format: cell-based; settings: for MBC: C. tropicalis NCTC 7393, 99.9% killing; for MIC: C. tropicalis NCTC 7393, 24 h at 37° C.
Experimental: as §2

[17] = test system: S. epidermidis ATCC 35984; experiment: Broth microdilution MIC/MBC; format: cell-based; settings: for MBC: S. epidermidis ATCC 35984, 99.9% killing; for MIC: S. epidermidis ATCC 35984, 24 h at 37° C.
Experimental: as §2

B. cereus [18] = experiment: Broth microdilution MIC/MBC; format: cell-based; settings: 24 h at 37° C.
Experimental: as §2

S. aureus ATCC 29213 [19] = experiment: Broth microdilution MIC/MBC; format: cell-based; settings: for MBC: S. aureus ATCC 29213, 99.9% killing; for MIC: S. aureus ATCC 29213, 24 h at 37° C.
Experimental: as §2

S. aureus PIII [20] = experiment: Broth microdilution MIC; format: cell-based
Experimental: as §2

MRSA [21] = experiment: Broth microdilution MIC/MBC; format: cell-based, methicillin-resistant S. aureus; settings: for MIC: 24 h at 37° C.
Experimental: as §2

MRSA [22] = experiment: Zone of inhibition on MRSA-seeded agar culture plates; format: cell-based, methicillin-resistant S. aureus; settings: 40 μL of ionic liquid applied to MRSA-seeded agar culture plates
Excerpt: As used herein, CyMIMCI, refers to 1-alkyl-3-methyl-imidazolium chloride ionic liquids, wherein the alkyl group is a straight chain alkyl group having y carbon atoms.

B. cenocepacia J2315 [23] = experiment: Biofilm assay (Calgary Biofilm Device), MBEC; format: cell-based; settings: B. cenocepacia J2315 24 h biofilm, 24 h challenge
Experimental: as §1

E. coli PIII [24] = experiment: Biofilm assay (Calgary Biofilm Device), MBEC; format: cell-based; settings: E. coli PIII 24 h biofilm, 24 h challenge
Experimental: as §1

S. aureus ATCC 29213 [25] = experiment: Biofilm assay (Calgary Biofilm Device), MBEC; format: cell-based; settings: S. aureus ATCC 29213 24 h biofilm, 24 h challenge
Experimental: as §1

B. cenocepacia J2315 [26] = experiment: Broth microdilution MIC/MBC; format: cell-based
Experimental: as §2

E. coli PIII [27] = experiment: Broth microdilution MIC; format: cell-based
Experimental: as §2

MRSA [28] = experiment: Biofilm assay (Calgary Biofilm Device), MBEC; format: cell-based, methicillin-resistant S. aureus
Experimental: as §1

[29] = test system: S. epidermidis ATCC 12228; experiment: Biofilm assay (Calgary Biofilm Device), MBEC; format: cell-based
Experimental: as §1

[30] = Staphylococcus epidermidis, ATCC12228
[31] = Pseudomonas aeruginosa, PA01, 24 h

SMILES | MBEC (K. aerogenes NCTC 7427 [1]) [µM] | MBEC (P. aeruginosa PA01 [3]) [µM] | MBEC (E-MRSA 15 [5]) [µM] | MBEC (P. mirabilis NCTC 12442 [6]) [µM] | MBEC (C. tropicalis NCTC 7393 [7]) [µM] | MBEC [8] [µM] | MBEC (B. cereus [9]) [µM] | MBC (K. aerogenes NCTC 7427 [10]) [µM] | MIC (K. aerogenes NCTC 7427 [10]) [µM] | MBC [11] [µM] | MIC [11] [µM] | MBC (E. coli NCTC 8196 [13]) [µM] | MIC (E. coli NCTC 8196 [13]) [µM] | MBC (E-MRSA 15 [14]) [µM] | MIC (E-MRSA 15 [14]) [µM] | MIC (P. mirabilis NCTC 12442 [15]) [µM] | MBC (C. tropicalis NCTC 7393 [16]) [µM] | MIC (C. tropicalis NCTC 7393 [16]) [µM] | MBC [17] [µM] | MIC [17] [µM] | further results
CCCCCCCCCCCCCCCC[n+]1cccc2ccccc21.[Br-] [1-alkyl-3-quinolinium bromides 16] | 561.92 | 1123.84 | 1123.84 | 2247.68 | 561.92 | 561.92 | 1123.84 | 35.12 | 35.12 | 35.12 | 35.12 | 70.24 | 35.12 | 70.24 | 35.12 | 70.24 | 70.24 | 35.12 | 35.12 | 35.12 | MBEC (S. aureus PIII [2]): 1123.84 µM; MBEC (E. coli NCTC 8196 [4]): 561.92 µM; MIC (P. aeruginosa PA01 [12]): 70.24 µM; MIC (B. cereus [18]): 140.48 µM; MBC (S. aureus ATCC 29213 [19]): 70.24 µM; MIC (S. aureus ATCC 29213 [19]): 70.24 µM; MIC (S. aureus PIII [20]): 70.24 µM
CCCCCCCCn1cc[n+](C)c1.[Cl-] [C8MIMCl] | 43331 | 21666 | 2708 | 43331 | >43331 | 10833 |  | >1444 | 1444 | 1444 | 361 | 1444 | 722 | >1444 | 722 | 1444 | >1444 | 1444 | 1444 | 722 | MBC (MRSA [21]; 99.9% killing): >1444 µM; MIC (MRSA [21]): 1444 µM; Zone Of Inhibition Radius (MRSA [22]): 12 mm; MBEC (B. cenocepacia J2315 [23]): 43331 µM; MBEC (E. coli PIII [24]): 21666 µM; percent weight to volume of ionic liquid that corresponds to the MBEC value ([8]; S. epidermidis ATCC 35984 biofilm): (0.25) % w/v; MBEC (S. aureus ATCC 29213 [25]): 2708 µM; MBC (B. cenocepacia J2315 [26]; B. cenocepacia J2315, 99.9% killing): >1444 µM; MIC (B. cenocepacia J2315 [26]; B. cenocepacia J2315, 24 h at 37° C.): >1444 µM; MBC (P. aeruginosa PA01 [12]; P. aeruginosa PA01, 99.9% killing): >1444 µM; MBC (P. mirabilis NCTC 12442 [15]; P. mirabilis NCTC 12442, 99.9% killing): >1444 µM; MBC (S. aureus ATCC 29213 [19]): >1444 µM; MIC (S. aureus ATCC 29213 [19]): 722 µM; MIC (E. coli PIII [27]): 722 µM; MBEC (MRSA [28]; MRSA 24 h biofilm, 24 h challenge): 21666 µM; percent weight to volume of ionic liquid that corresponds to the MBEC value (MRSA [28]; MRSA biofilm): (0.5) % w/v
CCCCCCCCCCCCCC[n+]1cccc2cc(C)ccc21.[Br-] [IL3, N-tetradecyl-6-methylquinolinium bromide] |  |  |  |  |  |  |  |  |  |  |  |  |  |  |  |  |  |  |  |  | MIC (MRSA [21]; Staphylococcus aureus): 23.2 µM; MBEC [29]: 8.2 µM; MIC [11, 30]: 8.2 µM; MIC (P. aeruginosa PA01 [12]; [31]): 23.2 µM; MIC (E. coli NCTC 8196 [13]; Escherichia coli, NCTC8196): 11.6 µM; MIC (P. mirabilis NCTC 12442 [15]; Proteus mirabilis, NCTC12442): 92.9 µM; MIC (B. cereus [18]; Bacillus cereus): 2.9 µM
CCCCCCCCCCCCCC[n+]1ccc2ccccc2c1.[Br-] [IL4, N-tetradecylisoquinolinium bromide] | 63.4 |  |  |  |  | 31.5 | 7.9 |  |  |  |  |  |  |  |  |  |  |  |  |  | MIC (MRSA [21]; Staphylococcus aureus): 24.1 µM; MBEC [29]: 31.7 µM; MBEC (S. aureus ATCC 29213 [25]): 126.9 µM; MIC (K. aerogenes NCTC 7427 [10]; Klebsiella aerogenes, NCTC7427): 7.9 µM; MIC [11, 30]: 7.9 µM; MIC (P. aeruginosa PA01 [12]; [31]): 48.2 µM; MIC (E. coli NCTC 8196 [13]; Escherichia coli, NCTC8196): 24.1 µM; MIC (P. mirabilis NCTC 12442 [15]; Proteus mirabilis, NCTC12442): 193 µM; MIC ([17]; Staphylococcus epidermidis, ATCC35984, 24 h): 7.9 µM; MIC (B. cereus [18]; Bacillus cereus): 3 µM; MIC (S. aureus ATCC 29213 [19]; Staphylococcus aureus, ATCC29213): 7.9 µM
